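Dose response: 5 concentrations. Exposure: 48 h. Format: 96-well plates. Endpoint: linear interpolation; highest concentration if not reached. GI50 marks 50% less growth. The concentration for full growth arrest is given as TGI.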
Columns and labels:
Experiment in all cases: DTP human tumour cell line panel, 48 h
SF-295 CNS = tested on: SF-295 CNS
A549 NSCLC = tested on: A549 NSCLC
COLO 205 colon = tested on: COLO 205 colon
U251 CNS = tested on: U251 CNS
ACHN renal = tested on: ACHN renal
M14 melanoma = tested on: M14 melanoma
HOP-62 NSCLC = tested on: HOP-62 NSCLC
SK-OV-3 ovarian = tested on: SK-OV-3 ovarian
SF-268 CNS = tested on: SF-268 CNS
SNB-19 CNS = tested on: SNB-19 CNS
MDA-N = tested on: MDA-N
MCF7 breast = tested on: MCF7 breast
SF-539 CNS = tested on: SF-539 CNS
T-47D breast = tested on: T-47D breast
NCI-H226 lung = tested on: NCI-H226 lung
EKVX NSCLC = tested on: EKVX NSCLC
NCI-H460 lung = tested on: NCI-H460 lung
HOP-92 NSCLC = tested on: HOP-92 NSCLC
OVCAR-8 ovarian = tested on: OVCAR-8 ovarian
A498 renal = tested on: A498 renal
MDA-MB-231 breast = tested on: MDA-MB-231 breast
TK-10 renal = tested on: TK-10 renal
UO-31 renal = tested on: UO-31 renal
OVCAR-3 ovarian = tested on: OVCAR-3 ovarian
UACC-257 melanoma = tested on: UACC-257 melanoma
HT29 colon = tested on: HT29 colon
UACC-62 melanoma = tested on: UACC-62 melanoma
CAKI-1 renal = tested on: CAKI-1 renal
BT-549 breast = tested on: BT-549 breast
HS 578T breast = tested on: HS 578T breast
786-0 renal = tested on: 786-0 renal
SK-MEL-2 melanoma = tested on: SK-MEL-2 melanoma
SK-MEL-5 melanoma = tested on: SK-MEL-5 melanoma
NCI/ADR-RES ovarian = tested on: NCI/ADR-RES ovarian
NCI-H23 lung = tested on: NCI-H23 lung
NCI-H522 lung = tested on: NCI-H522 lung
OVCAR-4 ovarian = tested on: OVCAR-4 ovarian
HCT-116 colon = tested on: HCT-116 colon
DU-145 prostate = tested on: DU-145 prostate
MALME-3M melanoma = tested on: MALME-3M melanoma
K-562 leukemia = tested on: K-562 leukemia
OVCAR-5 ovarian = tested on: OVCAR-5 ovarian
HCT-15 colon = tested on: HCT-15 colon
SNB-75 CNS = tested on: SNB-75 CNS
KM12 colon = tested on: KM12 colon
RXF 393 renal = tested on: RXF 393 renal
SK-MEL-28 melanoma = tested on: SK-MEL-28 melanoma
PC-3 prostate = tested on: PC-3 prostate
SW-620 colon = tested on: SW-620 colon
HCC-2998 colon = tested on: HCC-2998 colon
SN12C renal = tested on: SN12C renal
RPMI-8226 leukemia = tested on: RPMI-8226 leukemia
MDA-MB-435 = tested on: MDA-MB-435
IGROV1 ovarian = tested on: IGROV1 ovarian

Which results are given for Oc1c(Cl)cc(C(c2cc(Cl)c(O)c(Cl)c2)C(c2cc(Cl)c(O)c(Cl)c2)c2cc(Cl)c(O)c(Cl)c2)cc1Cl?
GI50 (SF-295 CNS): 3.51 µM; TGI (SF-295 CNS): 16.3 µM; GI50 (A549 NSCLC): 3.73 µM; TGI (A549 NSCLC): 36.4 µM; GI50 (COLO 205 colon): 10.6 µM; TGI (COLO 205 colon): 28.9 µM; GI50 (U251 CNS): 3.03 µM; TGI (U251 CNS): 10.7 µM; GI50 (ACHN renal): 5.21 µM; TGI (ACHN renal): 20.3 µM; GI50 (M14 melanoma): 4.25 µM; TGI (M14 melanoma): 18.8 µM; GI50 (HOP-62 NSCLC): 6.28 µM; TGI (HOP-62 NSCLC): 19.2 µM; GI50 (SK-OV-3 ovarian): 11.3 µM; TGI (SK-OV-3 ovarian): 23.4 µM; GI50 (SF-268 CNS): 5.09 µM; GI50 (SNB-19 CNS): 3.51 µM; TGI (SNB-19 CNS): 17.3 µM; GI50 (MDA-N): 4.07 µM; TGI (MDA-N): 19 µM; GI50 (MCF7 breast): 3.18 µM; TGI (MCF7 breast): 15.8 µM; GI50 (SF-539 CNS): 5.33 µM; TGI (SF-539 CNS): 20.4 µM; GI50 (T-47D breast): 1.74 µM; TGI (T-47D breast): 12.5 µM; GI50 (NCI-H226 lung): 25.7 µM; GI50 (EKVX NSCLC): 3.35 µM; TGI (EKVX NSCLC): 17.2 µM; GI50 (NCI-H460 lung): 2.59 µM; TGI (NCI-H460 lung): 18.7 µM; GI50 (HOP-92 NSCLC): 3.44 µM; TGI (HOP-92 NSCLC): 13.6 µM; GI50 (OVCAR-8 ovarian): 4.11 µM; TGI (OVCAR-8 ovarian): 22.3 µM; GI50 (A498 renal): 10.1 µM; TGI (A498 renal): 26.3 µM; GI50 (MDA-MB-231 breast): 6.22 µM; TGI (MDA-MB-231 breast): 26.4 µM; GI50 (TK-10 renal): 7.05 µM; TGI (TK-10 renal): 21.5 µM; GI50 (UO-31 renal): 0.573 µM; TGI (UO-31 renal): 8.04 µM; GI50 (OVCAR-3 ovarian): 3.12 µM; TGI (OVCAR-3 ovarian): 11.9 µM; GI50 (UACC-257 melanoma): 7.75 µM; TGI (UACC-257 melanoma): 23.9 µM; GI50 (HT29 colon): 4.36 µM; TGI (HT29 colon): 16.3 µM; GI50 (UACC-62 melanoma): 3 µM; TGI (UACC-62 melanoma): 12.5 µM; GI50 (CAKI-1 renal): 3.45 µM; TGI (CAKI-1 renal): 13.6 µM; GI50 (BT-549 breast): 3.23 µM; TGI (BT-549 breast): 36.9 µM; GI50 (HS 578T breast): 4.54 µM; TGI (HS 578T breast): 57.4 µM; GI50 (786-0 renal): 3.49 µM; TGI (786-0 renal): 16.7 µM; GI50 (SK-MEL-2 melanoma): 2.92 µM; TGI (SK-MEL-2 melanoma): 7.33 µM; GI50 (SK-MEL-5 melanoma): 2.89 µM; TGI (SK-MEL-5 melanoma): 14.8 µM; GI50 (NCI/ADR-RES ovarian): 10.7 µM; TGI (NCI/ADR-RES ovarian): 38 µM; GI50 (NCI-H23 lung): 3.68 µM; TGI (NCI-H23 lung): 16.3 µM; GI50 (NCI-H522 lung): 6.36 µM; TGI (NCI-H522 lung): 47.5 µM; GI50 (OVCAR-4 ovarian): 7.11 µM; TGI (OVCAR-4 ovarian): 94.4 µM; GI50 (HCT-116 colon): 2.36 µM; TGI (HCT-116 colon): 10.8 µM; GI50 (DU-145 prostate): 3.63 µM; TGI (DU-145 prostate): 14.1 µM; GI50 (MALME-3M melanoma): 5.88 µM; TGI (MALME-3M melanoma): 30.4 µM; GI50 (K-562 leukemia): 13.1 µM; TGI (K-562 leukemia): 38 µM; GI50 (OVCAR-5 ovarian): 12.3 µM; TGI (OVCAR-5 ovarian): 24.8 µM; GI50 (HCT-15 colon): 2.57 µM; TGI (HCT-15 colon): 13.7 µM; GI50 (SNB-75 CNS): 3.08 µM; TGI (SNB-75 CNS): 7.87 µM; GI50 (KM12 colon): 2.85 µM; TGI (KM12 colon): 11.8 µM; GI50 (RXF 393 renal): 1.34 µM; TGI (RXF 393 renal): 4.11 µM; GI50 (SK-MEL-28 melanoma): 5.27 µM; TGI (SK-MEL-28 melanoma): 54.3 µM; TGI (PC-3 prostate): 13.8 µM; GI50 (SW-620 colon): 6.6 µM; TGI (SW-620 colon): 23 µM; GI50 (HCC-2998 colon): 3.79 µM; TGI (HCC-2998 colon): 14.3 µM; GI50 (SN12C renal): 2.41 µM; TGI (SN12C renal): 8.99 µM; GI50 (RPMI-8226 leukemia): 3 µM; TGI (RPMI-8226 leukemia): 12.4 µM; GI50 (MDA-MB-435): 5.64 µM; TGI (MDA-MB-435): 19.2 µM; GI50 (IGROV1 ovarian): 5.29 µM; TGI (IGROV1 ovarian): 16.8 µM
